Several values for one entry are separate records, joined by “and”; a condition that tells them apart may be missing. Equal entries are not always repeated. Where two headings read alike, the source gives them in different places.
What was measured:
[1] = Metabolic stability in dog liver S9; type: in vitro ADME, Beagle dog; details: for half-life at 1 μM / microsomal CLint at 1 μM: pH 7.2
Procedure: Incubation Buffer (PBK): 50 mM potassium phosphate buffer was prepared from 1 M potassium phosphate buffer, pH 7.2. […] The dilution of […] was prepared by 90% methanol/10% DMSO, then 10 μM working solutions were prepared by diluting the 0.1 mM intermediates with 50 mM PBK. […] Prior to use, the stock solutions were brought to room temperature and thoroughly mixed. […] Cofactors Solutions: the mixture of cofactors solution was made at 10 mM of NADPH and 10 mM of UDPGA in PBK buffer.
The incubation was carried out in 96-well plates. The liver S9 working solutions were added to 96-well plates (80 μL/well) in duplicate. […] Reaction was initiated by adding cofactor mixture 10 μL/well. The plates were incubated at 37° C. in a water bath with shaking. […] The final organic solvent content in the incubation was ≤1%.
At specified time points, i.e., 5, 10, 20, 30 and 60 minutes, NCF60 (without adding NADPH (Nicotinamide-adenine dinucleotide phosphate, reduced form) and UDPGA (Uridine 5′-diphosphoglucuronic acid trisodium salt) replaced with PBK buffer reaction was stopped by adding three volumes of stop solution. The time zero (To) samples were prepared by adding three volumes of stop solution to liver S9 samples, followed by addition of test article or control, and cofactor mixture solution 10 μL/well.
Subsequently, 100 μL of supernatant.
Positive controls: 7-ethoxycoumarin and 7-hydroxycoumarin.

Enzyme and uptake assays = type: biochemical; details: human recombinant; [3H]NE incorporation into cells; read-out: IC50, Norepinephrine transporter uptake (h)
Procedure: A study was conducted to test 5 compounds in cellular and nuclear receptor functional and enzyme and uptake assays.
The results are expressed as a percent of control specific activity
and as a percent inhibition of control specific activity
The IC50 values (concentration causing a half-maximal inhibition of control specific activity), EC50 values (concentration producing a half-maximal increase in control basal activity), and Hill coefficients (nH) were determined by non-linear regression analysis of the inhibition/concentration-response curves generated with mean replicate values using Hill equation curve fitting
where Y=specific activity, A=left asymptote of the curve, D=right asymptote of the curve, C=compound concentration, C50=IC50 or EC50, and nH=slope factor. This analysis was performed using software developed at Cerep (Hill software) and validated by comparison with data generated by the commercial software SigmaPlot® 4.0 for Windows® (© 1997 by SPSS Inc.).
In Vitro Pharmacology. Results showing an inhibition (or stimulation for assays run in basal conditions) higher than 50% were considered to represent significant effects of the test compounds. Results showing an inhibition (or stimulation) between 25% and 50% are indicative of weak to moderate effects. Results showing an inhibition (or stimulation) lower than 25% were not considered significant and mostly attributable to variability of the signal around the control level. […]

behavioral signature = test: SmartCube phenotypic screening (class/subclass and DRFA similarity analysis); type: in vivo, male C57/B16 mice; details: for Subclass signature: COMPOUND A 30-120 mg/kg, COMPOUND B 90 and 120 mg/kg PO; for proximity to donepezil / proximity to thioperamide: DRFA dose by dose, maximum (COMPOUND A: 90 and 120 mg/kg)
Procedure: A study was conducted to evaluate the CNS-like efficacy of novel test compounds using the SmartCube® System.
Animals. Male C57/B16 mice from Taconic Laboratories (Germantown, NY) were used. Upon receipt, mice were group-housed in OPTIMice® ventilated cages with 4 mice per cage. Mice were acclimated to the colony room for at least one week prior to test, and subsequently tested at approximately 8-9 weeks of age. All animals were examined, handled, and weighed prior to initiation of the study to assure adequate health and suitability and to minimize nonspecific stress associated with manipulation. During the course of the study, 12/12 light/dark cycles were maintained. The room temperature was 20-23° C. with a relative humidity maintained between 30-70%. Chow and water were provided ad libitum for the duration of the study.
Test compounds. All compounds were administered orally at a dose volume of 10 mL/kg, 20 minutes prior to testing. Formulations were prepared fresh on day of testing and dosing was completed within one hour of formulation. Compounds were prepared according to the table below. Twelve mice were used in each treatment group:
SmartCube®. The SmartCube® system is designed to and can successfully measure numerous spontaneous behaviors and response to challenges in the same testing environment. The hardware includes force sensors and a number of aversive stimuli to elicit behavior. Three high-resolution video cameras provide constant 3D view of the mouse in the SmartCube® apparatus (SC) throughout the entire testing period. During the 45-minute test session the mice are exposed to a sequence of challenges. The cubes are cleaned between each run.
Digital videos of the subjects were processed through computer segmentation algorithms to fit geometrical models to each mouse frame image. The resulting fitted parameters were then analyzed using behavioral classifier algorithms to extract behavioral states, such as rearing, locomotion, and immobility. The data obtained in this way was used to define a drug signature for PGI's known reference compounds and establish a therapeutic class signature against which a test sample can be compared.
The data mining effort utilizes several analytical methods including Bayesian probabilistic density models and Decision trees. The algorithms consider ˜2,600 measures including frequency and duration of behavioral states such as grooming, rearing, etc., and many other features obtained during the test session.
Two major types of analyses are routinely conducted: Class and subclass.
Each reference drug was tested at multiple doses appropriate for that drug in mice.
Multiple analyses of the data were performed to quantitatively produce independent predictions of drug class, and drug subclass. The behavioral signatures of the test drugs were evaluated using these classifiers to predict potential therapeutic utility.
The results for the class and subclass analyses are presented as standardized bar charts with percentages that sum to 100 for each dose.
Similarity Analysis Using “Clouds Framework”. The outcome from SmartCube® is a large set of features (behavioral parameters) that can be used for various analyses. […] Therefore, we formed statistically independent combinations of the original features (further referred to as de-correlated features). Each de-correlated feature extracted information from the whole cluster of the original features, so the new feature space would have lower dimensionality. Next, we applied a proprietary feature ranking algorithm to score each feature for its discrimination power (ability to separate the two groups, e.g. vehicle from treatment). Ranking is an important part of our analyses because it weighs each feature change by its relevance. We applied a feature ranking algorithm, derived from support vector in the support vector machine learning method, to rank each feature.

[2] = Tissue binding in CD-1 mouse brain homogenate (equilibrium dialysis); details: for stability in mouse brain homogenate / Analyte Peak area/IS Peak area CR (buffer side) / Analyte Peak area/IS Peak area Co (time zero) / % Unbound Experimental / Analyte Peak area/IS Peak area CD (brain homogenate side): 2 μM; for stability in mouse brain homogenate: dialysis conditions; for Analyte Peak area/IS Peak area CR (buffer side) / Analyte Peak area/IS Peak area CD (brain homogenate side): 4 hr dialysis (COMPOUND A 1 hr); for % Unbound Experimental: 4 hr
[3] = Protein binding in CD-1 mouse plasma (equilibrium dialysis); details: dialysis conditions; no binding reported
[4] = Beagle, dog liver S9, 1 μM, read-out: CLint(LS9)
[5] = dog liver S9, 1 μM, NCF60 (no cofactors, 60 min)
[6] = 1 μM in Beagle Dog liver S9 fractions
[7] = 1 μM in Beagle Dog liver S9 fractions, read-out: CLint(mic.)

| SMILES | half-life at 1 μM ([1]; Beagle, dog liver S9, 1 μM) | microsomal CLint at 1 μM [1, 4] | % Remaining ([1]; dog liver S9, 1 μM, 0 min) | Analyte Peak area/IS Peak area Mean × 100 (n = 2) ([1]; dog liver S9, 1 μM, 0 min) | % Remaining ([1]; dog liver S9, 1 μM, 5 min) | Analyte Peak area/IS Peak area Mean × 100 (n = 2) ([1]; dog liver S9, 1 μM, 5 min) | % Remaining ([1]; dog liver S9, 1 μM, 10 min) | Analyte Peak area/IS Peak area Mean × 100 (n = 2) ([1]; dog liver S9, 1 μM, 10 min) | % Remaining ([1]; dog liver S9, 1 μM, 20 min) | Analyte Peak area/IS Peak area Mean × 100 (n = 2) ([1]; dog liver S9, 1 μM, 20 min) | % Remaining ([1]; dog liver S9, 1 μM, 30 min) | Analyte Peak area/IS Peak area Mean × 100 (n = 2) ([1]; dog liver S9, 1 μM, 30 min) | % Remaining ([1]; dog liver S9, 1 μM, 60 min) | Analyte Peak area/IS Peak area Mean × 100 (n = 2) ([1]; dog liver S9, 1 μM, 60 min) | % Remaining [1, 5] | Analyte Peak area/IS Peak area Mean × 100 (n = 2) [1, 5] | IC50 (Enzyme and uptake assays) | stability in mouse brain homogenate [2] | Analyte Peak area/IS Peak area CR (buffer side) ([2]; mouse brain homogenate) | Analyte Peak area/IS Peak area Co (time zero) ([2]; mouse brain homogenate) | also measured |
| --- | --- | --- | --- | --- | --- | --- | --- | --- | --- | --- | --- | --- | --- | --- | --- | --- | --- | --- | --- | --- | --- |
| CCOc1ccccc1OC[C@@H]1CN(C(=O)OC(C)OC(=O)[C@@H](N)C(C)C)CCO1 (stereo partly drawn) [COMPOUND A] | 11 min | 126 µL/min/mg | 100% | 12.2 | 8.0% | 0.98 | 8.8% | 1.078 | 5.2% | 0.635 | 3.1% | 0.381 | 0.8% | 0.097 | 2.0% | 0.248 | 0.39 µM | unstable | 0.0003 and 0.0002 | 0.010 and 0.012 | behavioral activity (class/subclass analysis) (behavioral signature; 30-120 mg/kg PO): high behavioral activity; Subclass signature (behavioral signature): predominantly cognitive enhancer-like; proximity to donepezil (behavioral signature): > 65%; proximity to thioperamide (behavioral signature): > 75%; % remaining after 1 hr ([2]; mouse brain homogenate, 1 hr (data not shown)): ^dCan't be determined due to instability of test article, which has 1.3% remaining after 1 hr (data not shown).; stability in the mouse plasma [3]: instability |
| CCOc1ccccc1OC[C@@H]1CN(C(=O)OC(OC(=O)[C@@H](N)C(C)C)C(C)C)CCO1 (stereo partly drawn) [COMPOUND B] | 7.3 min | 190 µL/min/mg | 100% | 7.78 | 2.9% | 0.226 | 4.0% | 0.309 | 2.1% | 0.166 | 0.5% | 0.035 | 0.09% and 0.1% | 0.007 | 0.0% | 0.000 | 1.9 µM | unstable | 0.001 and 0.002 | 0.057 and 0.059 and 0.064 | behavioral activity (class/subclass analysis) (behavioral signature; 90 and 120 mg/kg PO): high behavioral activity; Subclass signature (behavioral signature): predominantly cognitive enhancer-like; % Unbound Experimental ([2]; mouse brain homogenate): 15.5%; Analyte Peak area/IS Peak area CD (brain homogenate side) ([2]; mouse brain homogenate): 0.009 and 0.010; stability in the mouse plasma [3]: instability |
| CCOc1ccccc1OC[C@@H]1CN(C(=O)OC(OC(=O)[C@H](N)C(C)C)C(C)C)CCO1 (stereo partly drawn) [COMPOUND C] | 12 min | 115 µL/min/mg | 100% | 8.27 | 17% | 1.44 | 12% | 0.962 | 8.7% | 0.720 | 6.1% | 0.501 | 1.41% and 1.4% | 0.116 | 5.1% | 0.418 | 1.8 µM | unstable | 0.001 | 0.036 and 0.037 and 0.041 | behavioral activity (class/subclass analysis) (behavioral signature; 60-150 mg/kg PO): high behavioral activity; proximity to donepezil (behavioral signature): around 100%; proximity to thioperamide (behavioral signature): around 100%; proximity to amphetamine (behavioral signature; DRFA, active doses): > 75%; proximity to atomoxetine (behavioral signature; DRFA, active doses): > 75%; class signature (behavioral signature; highest dose tested (150 mg/kg PO)): predominant antipsychotic-like signature; % Unbound Experimental ([2]; mouse brain homogenate): 20.9%; Analyte Peak area/IS Peak area CD (brain homogenate side) ([2]; mouse brain homogenate): 0.002 and 0.003; stability in the mouse plasma [3]: instability |
| CCOc1ccccc1OCC1CN(C(=O)OC(C)OC(=O)[C@H](N)C(C)C)CCO1 (stereo partly drawn) [COMPOUND D] | – | – | – | – | – | – | – | – | – | – | – | – | – | – | – | – | 0.87 µM | – | – | – | % Remaining at 60 min [1, 6]: 3.10%; half-life at 1 μM [1, 6]: 12.6 min; microsomal CLint at 1 μM [1, 7]: 110 µL/min/mg; behavioral activity (class/subclass analysis) (behavioral signature; 40 and 80 mg/kg PO): dose dependent increase in activity |
| CCOc1ccccc1OCC1CN(C(=O)OC(OC(=O)[C@@H](N)C(C)C)C(C)C)CCO1 (stereo partly drawn) [COMPOUND E] | – | – | – | – | – | – | – | – | – | – | – | – | – | – | – | – | 2.6 µM | – | – | – | % Remaining at 60 min [1, 6]: 0.25%; half-life at 1 μM [1, 6]: 8.3 min; microsomal CLint at 1 μM [1, 7]: 167 µL/min/mg; behavioral activity (class/subclass analysis) (behavioral signature; 40 and 80 mg/kg PO): moderate activity |
